The test system of test [1] is Escherichia coli B. In words: Catalytic constant determined to activate by FMN-dependent nitroreductase enzyme from Escherichia coli B (NTR).
Test [2] concerns the target NAD(P)H dehydrogenase [quinone] 1 (Homo sapiens) (UniProt P15559). Description: Catalytic constant determined to activate by DT diaphorase in human cell lines.

Chain of NAD(P)H dehydrogenase [quinone] 1 (Homo sapiens) (P15559 whole entry): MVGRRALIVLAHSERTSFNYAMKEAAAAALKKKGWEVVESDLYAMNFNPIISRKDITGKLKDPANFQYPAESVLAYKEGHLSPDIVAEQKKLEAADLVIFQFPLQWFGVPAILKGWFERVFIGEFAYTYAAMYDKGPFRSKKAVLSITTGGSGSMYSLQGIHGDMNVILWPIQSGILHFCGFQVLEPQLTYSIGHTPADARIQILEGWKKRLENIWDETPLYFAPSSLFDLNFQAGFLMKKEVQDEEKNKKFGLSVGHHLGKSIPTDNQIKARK

With `NC(=O)c1cc(N(CCCl)CCCl)c([N+](=O)[O-])cc1[N+](=O)[O-]`, the k cat in test [1] came to 26.3 s⁻¹.
`NC(=O)c1cc(N2CC2)c([N+](=O)[O-])cc1[N+](=O)[O-]`: the figures for the k cat in test [2] and in test [1] were 0.0107 s⁻¹ and 6 s⁻¹, respectively.

For the origin of these results see ChEMBL document CHEMBL1133673, “Crystal structure of FMN-dependent nitroreductase from Escherichia coli B: a prodrug-activating enzyme” (J Med Chem, 2000).
